Test results from ChEMBL document CHEMBL4619804, “Target-Based Identification and Optimization of 5-Indazol-5-yl Pyridones as Toll-like Receptor 7 and 8 Antagonists Using a Biochemical TLR8 Antagonist Competition Assay” (J Med Chem, 2020).

Experiments:
Toll-like receptor 9 [1] = biological target: T1, Toll-like receptor 9 (Homo sapiens, UniProt Q9NR96); experiment: Antagonist activity at TLR9 in human whole blood inhibition of DOTAP-ODN2216-induced IFNalpha production preincubated for 30 mins followed by DOTAP-ODN2216 addition and measured after 20 hrs by ELISA; format: tissue-based
T1 sequence (Q9NR96 whole entry): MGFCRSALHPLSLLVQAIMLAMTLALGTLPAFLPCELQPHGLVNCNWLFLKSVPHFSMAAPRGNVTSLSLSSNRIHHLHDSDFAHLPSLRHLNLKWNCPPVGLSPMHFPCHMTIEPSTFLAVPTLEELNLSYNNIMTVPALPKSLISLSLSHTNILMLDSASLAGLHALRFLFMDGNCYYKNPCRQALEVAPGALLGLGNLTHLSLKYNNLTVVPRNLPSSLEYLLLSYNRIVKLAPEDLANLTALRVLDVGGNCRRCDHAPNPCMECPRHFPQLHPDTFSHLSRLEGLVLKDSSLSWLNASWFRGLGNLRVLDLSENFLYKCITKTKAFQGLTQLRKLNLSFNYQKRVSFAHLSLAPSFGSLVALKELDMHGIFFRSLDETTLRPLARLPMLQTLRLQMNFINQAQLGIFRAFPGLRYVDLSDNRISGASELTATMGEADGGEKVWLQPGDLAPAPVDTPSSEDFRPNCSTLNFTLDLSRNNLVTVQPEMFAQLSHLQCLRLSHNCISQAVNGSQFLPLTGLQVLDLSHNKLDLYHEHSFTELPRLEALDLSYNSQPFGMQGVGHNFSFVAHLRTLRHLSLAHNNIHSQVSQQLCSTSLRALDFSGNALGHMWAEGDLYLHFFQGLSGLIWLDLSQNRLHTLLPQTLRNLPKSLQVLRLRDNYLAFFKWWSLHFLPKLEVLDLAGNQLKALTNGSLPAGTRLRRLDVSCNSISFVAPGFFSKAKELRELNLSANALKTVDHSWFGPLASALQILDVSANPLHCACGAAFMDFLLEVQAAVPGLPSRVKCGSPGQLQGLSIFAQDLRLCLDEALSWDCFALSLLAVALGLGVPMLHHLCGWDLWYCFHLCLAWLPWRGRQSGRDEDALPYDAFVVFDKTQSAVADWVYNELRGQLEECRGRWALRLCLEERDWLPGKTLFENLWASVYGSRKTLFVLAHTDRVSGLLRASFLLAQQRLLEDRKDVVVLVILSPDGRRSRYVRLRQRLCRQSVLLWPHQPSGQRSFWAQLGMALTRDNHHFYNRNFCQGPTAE

Toll-like receptor 4 = Toll-like receptor 4 (Homo sapiens, UniProt O00206); experiment: Antagonist activity at TLR4 in human PBMC assessed as inhibition of LPS-induced TNFalpha production preincubated for 30 mins followed by LPS addition and measured after 20 hrs by HTRF assay; format: cell-based
Toll-like receptor 9 [2] = biological target: T1, Toll-like receptor 9; experiment: Antagonist activity at TLR9 in human PBMC assessed as inhibition of ODN2216-induced IFNalpha production preincubated for 30 mins followed by ODN2216 addition and measured after 20 hrs by alphaLISA; format: cell-based
Toll-like receptor 5 = Toll-like receptor 5 (Homo sapiens, UniProt O60602); experiment: Antagonist activity at TLR5 in human PBMC assessed as inhibition of flagellin-induced TNFalpha production preincubated for 30 mins followed by flagellin addition and measured after 20 hrs by HTRF assay; format: cell-based
Cytochrome P450 3A4 = Cytochrome P450 3A4 (Homo sapiens, UniProt P08684); experiment: Inhibition of CYP3A4 (unknown origin); format: ADME
Toll-like receptor 9 [3] = biological target: T2, Toll-like receptor 9 (Mus musculus, UniProt Q9EQU3); experiment: Antagonist activity at TLR9 in mouse whole blood inhibition of DOTAP-ODN2216-induced IFNalpha production preincubated for 30 mins followed by DOTAP-ODN2216 addition and measured after 20 hrs by ELISA; format: tissue-based
T2 sequence (Q9EQU3 whole entry): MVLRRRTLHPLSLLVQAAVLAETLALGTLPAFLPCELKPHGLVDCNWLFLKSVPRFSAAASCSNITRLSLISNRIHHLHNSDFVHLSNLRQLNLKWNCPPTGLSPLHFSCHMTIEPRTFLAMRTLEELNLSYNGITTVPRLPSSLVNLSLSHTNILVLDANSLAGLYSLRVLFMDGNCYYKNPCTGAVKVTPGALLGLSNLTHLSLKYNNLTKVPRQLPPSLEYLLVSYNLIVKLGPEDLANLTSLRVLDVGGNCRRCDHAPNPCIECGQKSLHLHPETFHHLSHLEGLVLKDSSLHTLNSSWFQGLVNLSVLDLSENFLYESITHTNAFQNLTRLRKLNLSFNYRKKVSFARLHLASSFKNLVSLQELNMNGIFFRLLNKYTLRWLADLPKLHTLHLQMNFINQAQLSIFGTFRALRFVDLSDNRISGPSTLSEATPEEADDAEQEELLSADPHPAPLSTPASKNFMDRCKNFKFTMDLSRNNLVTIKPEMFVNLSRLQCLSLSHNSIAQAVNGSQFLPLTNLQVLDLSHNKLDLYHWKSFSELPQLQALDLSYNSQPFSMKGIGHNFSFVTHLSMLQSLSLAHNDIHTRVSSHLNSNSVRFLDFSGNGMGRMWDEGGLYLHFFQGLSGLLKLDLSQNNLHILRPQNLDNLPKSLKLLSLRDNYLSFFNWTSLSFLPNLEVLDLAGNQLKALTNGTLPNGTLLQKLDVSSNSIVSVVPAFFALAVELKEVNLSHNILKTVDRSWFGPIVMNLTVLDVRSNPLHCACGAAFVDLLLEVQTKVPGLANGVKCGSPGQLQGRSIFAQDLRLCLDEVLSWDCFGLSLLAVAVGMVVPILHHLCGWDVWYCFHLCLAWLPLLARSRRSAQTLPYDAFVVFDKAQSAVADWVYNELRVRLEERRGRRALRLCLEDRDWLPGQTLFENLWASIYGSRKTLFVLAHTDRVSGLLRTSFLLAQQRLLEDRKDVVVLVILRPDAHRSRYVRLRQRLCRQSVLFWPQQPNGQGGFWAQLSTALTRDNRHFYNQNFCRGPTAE

Toll-like receptor 2 = Toll-like receptor 2 (Homo sapiens, UniProt O60603); experiment: Antagonist activity at TLR2 in human PBMC assessed as inhibition of Pam3CSK4-induced TNFalpha production preincubated for 30 mins followed by Pam3CSK4 addition and measured after 20 hrs by HTRF assay; format: cell-based
Chain of Toll-like receptor 2 (O60603 whole entry): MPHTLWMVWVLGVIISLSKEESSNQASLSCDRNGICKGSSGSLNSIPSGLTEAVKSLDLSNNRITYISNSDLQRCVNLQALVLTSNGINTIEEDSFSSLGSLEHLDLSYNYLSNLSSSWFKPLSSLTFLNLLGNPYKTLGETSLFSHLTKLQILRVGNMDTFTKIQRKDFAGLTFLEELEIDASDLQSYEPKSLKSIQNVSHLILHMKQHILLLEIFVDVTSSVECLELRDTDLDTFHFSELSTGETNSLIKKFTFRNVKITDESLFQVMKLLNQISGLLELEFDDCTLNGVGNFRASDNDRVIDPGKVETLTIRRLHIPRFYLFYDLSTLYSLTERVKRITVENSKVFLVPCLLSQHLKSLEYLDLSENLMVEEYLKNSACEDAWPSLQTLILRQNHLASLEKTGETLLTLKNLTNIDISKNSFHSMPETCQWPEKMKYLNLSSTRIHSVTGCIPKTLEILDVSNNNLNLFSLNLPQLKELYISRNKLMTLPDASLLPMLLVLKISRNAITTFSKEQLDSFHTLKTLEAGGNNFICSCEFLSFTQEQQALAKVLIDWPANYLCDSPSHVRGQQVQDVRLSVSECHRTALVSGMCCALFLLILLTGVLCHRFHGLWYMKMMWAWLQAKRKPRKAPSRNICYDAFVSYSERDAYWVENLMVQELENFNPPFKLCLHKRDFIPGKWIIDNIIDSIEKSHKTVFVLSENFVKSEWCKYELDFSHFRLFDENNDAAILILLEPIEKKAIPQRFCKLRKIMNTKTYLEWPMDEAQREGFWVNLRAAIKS

Chain of Toll-like receptor 4 (O00206 whole entry): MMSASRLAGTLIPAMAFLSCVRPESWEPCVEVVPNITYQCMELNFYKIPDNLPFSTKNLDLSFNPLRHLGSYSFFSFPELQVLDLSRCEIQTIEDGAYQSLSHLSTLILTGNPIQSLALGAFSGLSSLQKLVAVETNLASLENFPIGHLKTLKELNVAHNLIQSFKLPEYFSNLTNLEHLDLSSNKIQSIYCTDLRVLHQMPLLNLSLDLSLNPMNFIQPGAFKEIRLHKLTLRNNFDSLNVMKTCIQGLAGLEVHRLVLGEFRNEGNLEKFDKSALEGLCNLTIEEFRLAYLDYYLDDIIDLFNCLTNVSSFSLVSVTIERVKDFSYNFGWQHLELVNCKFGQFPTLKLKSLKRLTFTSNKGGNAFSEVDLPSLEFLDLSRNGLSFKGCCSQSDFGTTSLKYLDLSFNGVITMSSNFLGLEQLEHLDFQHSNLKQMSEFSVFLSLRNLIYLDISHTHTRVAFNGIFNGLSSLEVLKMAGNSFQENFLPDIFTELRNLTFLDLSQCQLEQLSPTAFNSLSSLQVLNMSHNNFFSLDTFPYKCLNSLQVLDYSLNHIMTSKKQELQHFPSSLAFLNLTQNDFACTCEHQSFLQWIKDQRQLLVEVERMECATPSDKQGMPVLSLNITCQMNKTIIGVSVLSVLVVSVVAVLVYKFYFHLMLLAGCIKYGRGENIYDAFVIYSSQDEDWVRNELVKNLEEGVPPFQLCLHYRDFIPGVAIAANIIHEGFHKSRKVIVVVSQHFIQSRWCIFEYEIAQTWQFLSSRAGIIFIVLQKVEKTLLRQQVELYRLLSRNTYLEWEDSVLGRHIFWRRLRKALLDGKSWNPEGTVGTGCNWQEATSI
Chain of Cytochrome P450 3A4 (P08684 whole entry): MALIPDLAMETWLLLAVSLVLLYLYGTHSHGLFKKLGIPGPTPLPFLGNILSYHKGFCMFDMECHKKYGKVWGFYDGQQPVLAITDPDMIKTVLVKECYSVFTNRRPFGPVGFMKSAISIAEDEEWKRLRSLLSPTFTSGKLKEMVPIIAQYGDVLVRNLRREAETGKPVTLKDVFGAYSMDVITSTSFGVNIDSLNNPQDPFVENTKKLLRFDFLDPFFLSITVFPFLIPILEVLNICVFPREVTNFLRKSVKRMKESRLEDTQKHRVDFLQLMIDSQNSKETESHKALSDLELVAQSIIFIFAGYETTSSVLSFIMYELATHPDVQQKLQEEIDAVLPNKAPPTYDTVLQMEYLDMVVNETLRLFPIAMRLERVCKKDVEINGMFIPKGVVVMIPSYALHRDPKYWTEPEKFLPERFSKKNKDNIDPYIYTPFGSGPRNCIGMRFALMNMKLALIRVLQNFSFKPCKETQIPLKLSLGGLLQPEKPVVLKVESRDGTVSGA
Chain of Toll-like receptor 5 (O60602 whole entry): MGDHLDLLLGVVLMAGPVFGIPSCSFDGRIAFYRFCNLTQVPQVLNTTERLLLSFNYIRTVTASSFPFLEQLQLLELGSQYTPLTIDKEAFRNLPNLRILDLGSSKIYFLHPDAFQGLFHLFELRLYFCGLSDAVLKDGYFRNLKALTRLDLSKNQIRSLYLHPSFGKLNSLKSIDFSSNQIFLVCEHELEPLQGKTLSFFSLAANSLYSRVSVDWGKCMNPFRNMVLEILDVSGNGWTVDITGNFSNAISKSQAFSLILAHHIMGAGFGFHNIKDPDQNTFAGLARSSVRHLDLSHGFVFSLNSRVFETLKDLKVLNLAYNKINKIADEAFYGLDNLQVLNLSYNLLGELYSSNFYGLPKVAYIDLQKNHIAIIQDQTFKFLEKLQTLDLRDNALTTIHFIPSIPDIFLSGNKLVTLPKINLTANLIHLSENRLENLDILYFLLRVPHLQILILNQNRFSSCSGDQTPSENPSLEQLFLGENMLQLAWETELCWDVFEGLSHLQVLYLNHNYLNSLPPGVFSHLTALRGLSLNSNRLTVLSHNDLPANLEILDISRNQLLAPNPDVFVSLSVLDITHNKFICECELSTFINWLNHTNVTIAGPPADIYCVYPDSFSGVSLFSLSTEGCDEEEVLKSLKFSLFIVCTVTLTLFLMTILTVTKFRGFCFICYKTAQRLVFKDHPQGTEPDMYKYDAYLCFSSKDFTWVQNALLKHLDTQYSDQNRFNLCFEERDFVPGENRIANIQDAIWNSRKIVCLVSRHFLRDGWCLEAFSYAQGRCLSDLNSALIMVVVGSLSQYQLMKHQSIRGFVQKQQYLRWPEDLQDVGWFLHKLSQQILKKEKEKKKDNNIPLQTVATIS

## O=c1ccc(-c2cc(C(F)(F)F)c3nn([C@H]4CCNC[C@@H]4F)cc3c2)c2n1CCC2
Toll-like receptor 9 [1]
  IC50: > 10 µM
Toll-like receptor 4
  IC50: > 6.5 µM
Toll-like receptor 9 [2]
  IC50: > 5.3 µM
Toll-like receptor 5
  IC50: > 6.5 µM
Cytochrome P450 3A4
  IC50: > 25 µM
Toll-like receptor 9 [3]
  IC50: > 10 µM
Toll-like receptor 2
  IC50: > 6.5 µM
